Measurements: article PMC10178848, “Modulating fast skeletal muscle contraction protects skeletal muscle in animal models of Duchenne muscular dystrophy” (The Journal of Clinical Investigation, 2023)
Read-outs that look alike come from different tables or passages of the source.

Experiments:
HTR1B = biological target: T1, HTR1B (Homo sapiens, UniProt P28222); test: SAFETYscan cAMP; type: cell-based; design: dose or concentration left out as unconfirmed
T1 construct: purchased Eurofins DiscoverX (KINOMEscan; SAFETYscan E/IC50 ELECT)
Method: (§1) The specificity of EDG-5506 for fast skeletal myosin over other, unrelated proteins was confirmed using two off-target binding and activity screens. […] A second off-target panel (SAFETYscan E/IC50 ELECT, Eurofins DiscoverX) tested in vitro enzyme activity against 78 proteins, including GPCR, ion channel, kinases, nuclear hormone receptors, and transporters. In all assays, the IC50 of EDG-5506 was more than 10 μM (Supplemental Data File 1).

OPRK1 = biological target: T2, OPRK1 (Homo sapiens, UniProt P41145); test: SAFETYscan cAMP; type: cell-based; design: dose or concentration left out as unconfirmed
T2 construct: purchased Eurofins DiscoverX (KINOMEscan; SAFETYscan E/IC50 ELECT)
Method: as §1

DRD1 = biological target: T3, DRD1 (Homo sapiens, UniProt P21728); test: SAFETYscan cAMP; type: cell-based; design: dose or concentration left out as unconfirmed
T3 construct: purchased Eurofins DiscoverX (KINOMEscan; SAFETYscan E/IC50 ELECT)
Method: as §1

HRH2 = biological target: T4, HRH2 (Homo sapiens, UniProt P25021); test: SAFETYscan cAMP; type: cell-based; design: dose or concentration left out as unconfirmed
T4 construct: purchased Eurofins DiscoverX (KINOMEscan; SAFETYscan E/IC50 ELECT)
Method: as §1

ADRB1 = biological target: T5, ADRB1 (Homo sapiens, UniProt P08588); test: SAFETYscan cAMP; type: cell-based; design: dose or concentration left out as unconfirmed
T5 construct: purchased Eurofins DiscoverX (KINOMEscan; SAFETYscan E/IC50 ELECT)
Method: as §1

CHRM2 = biological target: T6, CHRM2 (Homo sapiens, UniProt P08172); test: SAFETYscan cAMP; type: cell-based; design: dose or concentration left out as unconfirmed
T6 construct: purchased Eurofins DiscoverX (KINOMEscan; SAFETYscan E/IC50 ELECT)
Method: as §1

HTR1A = biological target: T7, HTR1A (Homo sapiens, UniProt P08908); test: SAFETYscan cAMP; type: cell-based; design: dose or concentration left out as unconfirmed
T7 construct: purchased Eurofins DiscoverX (KINOMEscan; SAFETYscan E/IC50 ELECT)
Method: as §1

CNR2 = biological target: T8, CNR2 (Homo sapiens, UniProt P34972); test: SAFETYscan cAMP; type: cell-based; design: dose or concentration left out as unconfirmed
T8 construct: purchased Eurofins DiscoverX (KINOMEscan; SAFETYscan E/IC50 ELECT)
Method: as §1

DRD2S = biological target: T9, DRD2S (Homo sapiens, UniProt P14416); test: SAFETYscan cAMP; type: cell-based; design: dose or concentration left out as unconfirmed
T9 construct: purchased Eurofins DiscoverX (KINOMEscan; SAFETYscan E/IC50 ELECT)
Method: as §1

OPRD1 = biological target: T10, OPRD1 (Homo sapiens, UniProt P41143); test: SAFETYscan cAMP; type: cell-based; design: dose or concentration left out as unconfirmed
T10 construct: purchased Eurofins DiscoverX (KINOMEscan; SAFETYscan E/IC50 ELECT)
Method: as §1

CNR1 = biological target: T11, CNR1 (Homo sapiens, UniProt P21554); test: SAFETYscan cAMP; type: cell-based; design: dose or concentration left out as unconfirmed
T11 construct: purchased Eurofins DiscoverX (KINOMEscan; SAFETYscan E/IC50 ELECT)
Method: as §1

OPRM1 = biological target: T12, OPRM1 (Homo sapiens, UniProt P35372); test: SAFETYscan cAMP; type: cell-based; design: dose or concentration left out as unconfirmed
T12 construct: purchased Eurofins DiscoverX (KINOMEscan; SAFETYscan E/IC50 ELECT)
Method: as §1

ADRB2 = biological target: T13, ADRB2 (Homo sapiens, UniProt P07550); test: SAFETYscan cAMP; type: cell-based; design: dose or concentration left out as unconfirmed
T13 construct: purchased Eurofins DiscoverX (KINOMEscan; SAFETYscan E/IC50 ELECT)
Method: as §1

ADRA2A = biological target: T14, ADRA2A (Homo sapiens, UniProt P08913); test: SAFETYscan cAMP; type: cell-based; design: dose or concentration left out as unconfirmed
T14 construct: purchased Eurofins DiscoverX (KINOMEscan; SAFETYscan E/IC50 ELECT)
Method: as §1

[1] = tested on: psoas S1 (fast skeletal muscle myosin); test: Stopped-flow analysis of Pi release from myosin; type: biochemical, rabbit; design: dose or concentration left out as unconfirmed; details: preincubation with myosin 30 minutes prior to actin
Method: The rate of Pi release from myosin with actin utilized a fluorescent phosphate binding protein, as described previously ([63]). Experiments were performed in 10 mM MOPS, pH 7.0; 5 mM KCL; 1 mM EGTA; 1 mM DTT; 0.5 mM MgCl2. ATP and ADP were removed by incubation with apyrase ([64]). Prior to mixing with 1 mM ATP in a stopped flow device, compound was incubated with 6 μM psoas S1 at 25°C for 30 minutes.

TSSK1B = biological target: T15, TSSK1B (Homo sapiens, UniProt Q9BXA7); test: KINOMEscan scanEDGE; type: binding; details: 20 uM
T15 construct: purchased Eurofins DiscoverX (KINOMEscan; SAFETYscan E/IC50 ELECT)

[2] = read-out: Max Response (%) (Agonist)
[3] = read-out: Max Response (%) (Antagonist)

T8 sequence (P34972 whole entry): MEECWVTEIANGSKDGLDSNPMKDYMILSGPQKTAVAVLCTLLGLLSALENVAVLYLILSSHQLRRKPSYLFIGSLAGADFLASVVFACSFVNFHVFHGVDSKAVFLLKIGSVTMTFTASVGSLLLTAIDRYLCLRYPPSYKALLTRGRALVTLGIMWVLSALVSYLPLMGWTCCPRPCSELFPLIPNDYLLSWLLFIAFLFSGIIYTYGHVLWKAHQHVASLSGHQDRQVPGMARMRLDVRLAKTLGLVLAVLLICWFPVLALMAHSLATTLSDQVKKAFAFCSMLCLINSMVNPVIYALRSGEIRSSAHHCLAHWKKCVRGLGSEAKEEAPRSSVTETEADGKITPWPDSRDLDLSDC
T5 sequence (P08588 whole entry): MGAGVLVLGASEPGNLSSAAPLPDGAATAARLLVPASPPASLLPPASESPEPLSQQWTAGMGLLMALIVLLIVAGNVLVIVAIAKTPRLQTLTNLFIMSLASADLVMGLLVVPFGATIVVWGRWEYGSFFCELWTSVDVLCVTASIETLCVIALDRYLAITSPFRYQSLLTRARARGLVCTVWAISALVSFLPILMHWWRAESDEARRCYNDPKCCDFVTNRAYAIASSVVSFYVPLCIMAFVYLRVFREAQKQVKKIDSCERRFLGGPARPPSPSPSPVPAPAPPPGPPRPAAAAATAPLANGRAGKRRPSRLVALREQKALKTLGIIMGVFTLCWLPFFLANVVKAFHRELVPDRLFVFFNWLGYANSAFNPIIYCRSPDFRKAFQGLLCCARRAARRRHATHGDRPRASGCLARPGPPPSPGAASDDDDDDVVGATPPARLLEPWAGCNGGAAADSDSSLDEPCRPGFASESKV
T2 sequence (P41145 whole entry): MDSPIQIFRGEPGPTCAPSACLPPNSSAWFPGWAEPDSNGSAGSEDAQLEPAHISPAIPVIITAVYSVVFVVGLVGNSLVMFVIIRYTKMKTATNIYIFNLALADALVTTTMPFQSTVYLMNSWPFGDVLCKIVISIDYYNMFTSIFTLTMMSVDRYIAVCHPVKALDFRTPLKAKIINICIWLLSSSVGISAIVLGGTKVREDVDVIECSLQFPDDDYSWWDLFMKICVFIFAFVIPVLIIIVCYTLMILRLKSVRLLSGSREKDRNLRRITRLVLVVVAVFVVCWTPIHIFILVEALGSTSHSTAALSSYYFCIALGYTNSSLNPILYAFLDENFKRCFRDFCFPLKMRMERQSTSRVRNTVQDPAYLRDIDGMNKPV
T14 sequence (P08913 whole entry): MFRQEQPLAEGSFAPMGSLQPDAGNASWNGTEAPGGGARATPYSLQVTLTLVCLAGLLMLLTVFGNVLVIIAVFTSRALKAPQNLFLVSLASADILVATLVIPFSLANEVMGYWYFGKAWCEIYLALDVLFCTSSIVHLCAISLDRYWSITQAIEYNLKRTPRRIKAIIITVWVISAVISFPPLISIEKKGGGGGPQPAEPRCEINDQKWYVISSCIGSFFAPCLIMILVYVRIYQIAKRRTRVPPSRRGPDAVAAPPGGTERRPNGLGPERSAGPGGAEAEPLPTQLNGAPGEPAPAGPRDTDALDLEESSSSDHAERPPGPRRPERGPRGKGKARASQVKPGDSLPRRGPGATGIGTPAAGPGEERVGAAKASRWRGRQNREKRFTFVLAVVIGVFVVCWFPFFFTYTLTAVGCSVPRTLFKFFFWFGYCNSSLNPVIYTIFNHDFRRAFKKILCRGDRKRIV
T7 sequence (P08908 whole entry): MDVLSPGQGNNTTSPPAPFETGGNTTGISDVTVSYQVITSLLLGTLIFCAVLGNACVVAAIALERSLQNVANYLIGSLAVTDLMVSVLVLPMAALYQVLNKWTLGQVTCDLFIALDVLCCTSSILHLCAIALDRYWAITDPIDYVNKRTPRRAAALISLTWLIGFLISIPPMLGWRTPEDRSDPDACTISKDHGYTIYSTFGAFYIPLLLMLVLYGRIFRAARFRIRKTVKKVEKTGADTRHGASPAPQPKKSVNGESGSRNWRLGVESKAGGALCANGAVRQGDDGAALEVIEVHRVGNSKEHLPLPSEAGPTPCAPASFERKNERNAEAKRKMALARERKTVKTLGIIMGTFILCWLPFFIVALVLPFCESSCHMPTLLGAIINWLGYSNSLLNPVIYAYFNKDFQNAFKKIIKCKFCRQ
T13 sequence (P07550 whole entry): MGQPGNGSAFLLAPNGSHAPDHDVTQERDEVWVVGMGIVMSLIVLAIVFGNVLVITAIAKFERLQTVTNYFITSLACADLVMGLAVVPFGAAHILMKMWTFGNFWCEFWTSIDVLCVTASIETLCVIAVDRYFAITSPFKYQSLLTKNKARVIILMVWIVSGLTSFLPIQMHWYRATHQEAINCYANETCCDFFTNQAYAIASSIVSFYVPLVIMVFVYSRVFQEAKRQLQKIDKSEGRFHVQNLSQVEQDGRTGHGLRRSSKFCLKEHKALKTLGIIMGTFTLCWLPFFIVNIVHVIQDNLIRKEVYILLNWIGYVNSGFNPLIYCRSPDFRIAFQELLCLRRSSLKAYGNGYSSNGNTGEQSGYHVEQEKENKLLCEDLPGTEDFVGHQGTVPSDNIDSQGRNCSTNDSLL
T6 sequence (P08172 whole entry): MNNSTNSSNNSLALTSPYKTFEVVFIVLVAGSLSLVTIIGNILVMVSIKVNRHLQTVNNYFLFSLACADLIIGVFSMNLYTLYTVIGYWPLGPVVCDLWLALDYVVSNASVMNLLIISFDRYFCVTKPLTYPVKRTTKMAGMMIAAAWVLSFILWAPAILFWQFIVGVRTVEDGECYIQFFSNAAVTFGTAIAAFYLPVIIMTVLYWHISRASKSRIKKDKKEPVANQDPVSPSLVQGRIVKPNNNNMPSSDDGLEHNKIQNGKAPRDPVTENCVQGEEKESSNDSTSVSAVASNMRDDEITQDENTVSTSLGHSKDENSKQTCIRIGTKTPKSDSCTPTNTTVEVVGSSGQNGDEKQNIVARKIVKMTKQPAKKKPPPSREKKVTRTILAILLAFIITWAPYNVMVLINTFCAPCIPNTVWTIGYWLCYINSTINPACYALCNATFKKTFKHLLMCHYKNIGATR
T10 sequence (P41143 whole entry): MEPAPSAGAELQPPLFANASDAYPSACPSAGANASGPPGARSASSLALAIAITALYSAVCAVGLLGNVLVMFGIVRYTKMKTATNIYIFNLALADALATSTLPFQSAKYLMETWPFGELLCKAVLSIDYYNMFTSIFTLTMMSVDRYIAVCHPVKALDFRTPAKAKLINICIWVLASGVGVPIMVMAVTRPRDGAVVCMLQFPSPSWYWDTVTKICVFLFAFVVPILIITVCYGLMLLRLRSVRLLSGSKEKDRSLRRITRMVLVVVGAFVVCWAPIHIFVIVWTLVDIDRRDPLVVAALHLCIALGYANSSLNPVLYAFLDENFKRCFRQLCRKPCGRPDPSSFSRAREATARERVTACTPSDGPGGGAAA
T11 sequence (P21554 whole entry): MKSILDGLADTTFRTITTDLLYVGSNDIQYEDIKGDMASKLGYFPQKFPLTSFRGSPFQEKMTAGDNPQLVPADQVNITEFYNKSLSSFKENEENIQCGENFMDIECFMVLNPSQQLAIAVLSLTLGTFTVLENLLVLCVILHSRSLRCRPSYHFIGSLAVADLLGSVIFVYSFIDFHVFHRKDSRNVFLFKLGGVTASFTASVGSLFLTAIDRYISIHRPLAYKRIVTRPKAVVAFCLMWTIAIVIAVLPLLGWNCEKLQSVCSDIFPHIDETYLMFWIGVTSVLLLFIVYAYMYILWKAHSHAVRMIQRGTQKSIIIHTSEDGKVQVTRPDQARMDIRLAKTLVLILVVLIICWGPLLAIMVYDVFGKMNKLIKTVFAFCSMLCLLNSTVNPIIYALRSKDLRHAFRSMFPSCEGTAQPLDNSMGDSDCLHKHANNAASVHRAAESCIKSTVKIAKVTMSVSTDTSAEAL
T9 sequence (P14416 1-414 isoform P14416-2): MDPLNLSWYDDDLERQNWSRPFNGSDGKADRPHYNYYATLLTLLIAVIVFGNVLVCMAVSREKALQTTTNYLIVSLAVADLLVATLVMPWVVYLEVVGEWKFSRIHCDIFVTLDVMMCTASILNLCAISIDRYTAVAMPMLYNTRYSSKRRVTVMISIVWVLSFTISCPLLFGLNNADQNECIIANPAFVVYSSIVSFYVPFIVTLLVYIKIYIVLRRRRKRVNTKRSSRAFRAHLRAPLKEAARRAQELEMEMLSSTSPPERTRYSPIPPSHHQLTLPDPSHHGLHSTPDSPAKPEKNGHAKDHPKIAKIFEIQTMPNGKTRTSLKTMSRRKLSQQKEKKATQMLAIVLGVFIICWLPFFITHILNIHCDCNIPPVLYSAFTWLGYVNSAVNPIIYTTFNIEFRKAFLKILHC
T3 sequence (P21728 whole entry): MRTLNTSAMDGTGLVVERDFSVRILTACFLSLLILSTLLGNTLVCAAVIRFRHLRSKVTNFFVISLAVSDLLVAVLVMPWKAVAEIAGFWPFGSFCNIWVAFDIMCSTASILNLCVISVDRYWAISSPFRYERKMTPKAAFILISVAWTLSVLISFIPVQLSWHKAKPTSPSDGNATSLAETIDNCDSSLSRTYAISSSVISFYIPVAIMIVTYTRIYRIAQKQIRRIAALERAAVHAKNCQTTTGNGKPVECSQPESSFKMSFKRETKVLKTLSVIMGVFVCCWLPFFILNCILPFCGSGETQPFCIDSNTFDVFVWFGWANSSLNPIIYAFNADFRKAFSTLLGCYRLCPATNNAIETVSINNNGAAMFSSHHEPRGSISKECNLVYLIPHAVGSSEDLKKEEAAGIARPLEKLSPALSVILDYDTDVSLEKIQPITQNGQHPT

In the case of `O=c1ccc(-c2cnc(OCC(F)(F)F)nc2)nn1Cc1cncc(F)c1` [EDG-5506], the Emax (HTR1B; [2]) is reported as 0%, the Emax (HTR1B; [3]) is reported as 4.17% and the Emax (OPRK1; [2]) is reported as 9.76%. The Emax (OPRK1; [3]) was 0.05%, the Emax (DRD1; [2]) was 3.04% and the Emax (DRD1; [3]) was 14.3%. The Emax (HRH2; [2]) was 0%, the Emax (HRH2; [3]) was 15% and the Emax (ADRB1; [2]) was 2.02%. The Emax (ADRB1; [3]) was 9.68%, the Emax (CHRM2; [2]) was 21.5% and the Emax (CHRM2; [3]) was 0%. It also gave an Emax (HTR1A; [2]) of 0%, an Emax (HTR1A; [3]) of 1.51% and an Emax (CNR2; [2]) of 27.5%. It also gave an Emax (CNR2; [3]) of 0%, an Emax (DRD2S; [2]) of 7.3% and an Emax (DRD2S; [3]) of 1.39%. The Emax (OPRD1; [2]) was 7.61%, the Emax (OPRD1; [3]) was 9.41% and the Emax (CNR1; [2]) was 14.8%. It also gave an Emax (CNR1; [3]) of 3.38%, an Emax (OPRM1; [2]) of 17.4% and an Emax (OPRM1; [3]) of 0.2%. The Emax (ADRB2; [2]) was 0.97%, the Emax (ADRB2; [3]) was 20.8% and the Emax (ADRA2A; [2]) was 19.2%. The Emax (ADRA2A; [3]) was 0.88%, the “rate of Pi release from myosin with actin” value [1] was “decreased the rate of Pi release” and the “binding, % of control” value (TSSK1B) was 97 % of control.
